Data published in patent US5965575A, “N-aryl piperidine compounds as 5HT1B antagonists” (Adir Et Compagnie, priority 1997, dated 1999).

Key:
5-HT1A receptor = target: T1, 5-HT1A receptor (Rattus norvegicus, UniProt P19327); assay: 5-HT1A binding
T1 construct: from tissue
T1 sequence (P19327 1-422): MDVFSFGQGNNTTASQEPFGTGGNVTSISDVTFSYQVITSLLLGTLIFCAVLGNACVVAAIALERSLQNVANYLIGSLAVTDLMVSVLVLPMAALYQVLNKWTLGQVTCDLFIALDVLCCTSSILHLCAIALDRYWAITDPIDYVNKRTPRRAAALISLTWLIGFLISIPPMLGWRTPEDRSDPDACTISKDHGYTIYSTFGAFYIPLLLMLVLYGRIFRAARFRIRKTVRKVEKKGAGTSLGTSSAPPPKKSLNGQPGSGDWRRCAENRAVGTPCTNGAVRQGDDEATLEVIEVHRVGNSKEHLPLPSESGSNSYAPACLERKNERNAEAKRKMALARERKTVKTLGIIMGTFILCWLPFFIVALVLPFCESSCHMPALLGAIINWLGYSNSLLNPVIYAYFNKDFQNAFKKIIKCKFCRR
Protocol: The 5-HT1A receptor binding studies were carried out according to methods known and described in the literature (cf. S. J. Peroutka, J. Neurochem, 1986, 47, 529-40, M. J. Millan, J. Pharmacol. Exp. Ther., 1994, 268, 337-52). The results are also expressed as pKi.

5-HT1B receptor = target: T2, 5-HT1B receptor (Cavia porcellus, UniProt O08892); assay: 5-HT1B binding ([3H]-GR 125743, guinea-pig striatal membranes); conditions: [3H]-GR 125743 1 nM, guinea-pig striata membranes
T2 construct: After dissection of guinea-pig brains, the extracted striata are frozen; from tissue; host or cells: guinea-pig striatum membranes
T2 sequence (O08892 whole entry): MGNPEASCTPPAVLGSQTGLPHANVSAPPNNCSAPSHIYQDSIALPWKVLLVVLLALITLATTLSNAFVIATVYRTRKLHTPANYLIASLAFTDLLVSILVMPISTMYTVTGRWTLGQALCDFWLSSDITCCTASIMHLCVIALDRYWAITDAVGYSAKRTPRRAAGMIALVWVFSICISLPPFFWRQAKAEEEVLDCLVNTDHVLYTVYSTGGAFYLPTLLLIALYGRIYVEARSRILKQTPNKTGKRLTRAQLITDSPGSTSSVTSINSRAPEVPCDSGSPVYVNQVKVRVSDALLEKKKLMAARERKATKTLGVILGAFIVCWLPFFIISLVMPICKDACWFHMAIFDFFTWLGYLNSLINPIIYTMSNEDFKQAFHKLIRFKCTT
Protocol: After dissection of guinea-pig brains, the extracted striata are frozen and then homogenised in 20 volumes (weight/volume) of 50 mM tris-HCl (pH 7.7 at room temperature) containing 4 mM CaCl2 and 0.1% ascorbic acid, and centrifuged at 48,000 g for 25 minutes at 4° C. The supernatant is separated and the precipitate is resuspended in the same volume of buffer before being incubated at 37° C. for 15 minutes in order to extract the endogenous serotonin. Finally, the suspension is centrifuged at 48,000 g for 25 minutes at 4° C. and the precipitate is resuspended in 80 volumes of buffer containing 10 μM pargyline.
The binding studies ([^3 H]-GR 125743) are carried out in triplicate in the following buffer: 50 mM tris-HCl (pH 7.7 at room temperature) containing 4 mM CaCl2, 0.1% ascorbic acid and 10 μM pargyline. […]
The data are analysed by non-linear regression using the PRISM programme (Graphpad Software Inc., San Diego, Calif.) in order to determine the Kd values (dissociation constant of the radioligand), the Bmax values (maximum number of sites) for the saturation experiments and the IC50 values (50% inhibiting concentration) and the Hill number for the competition experiments. The inhibition constant (Ki) is calculated according to the Cheng-Prussof equation : Ki =IC50 /1+L/Kd wherein L represents the concentration of the radioligand. The results are expressed as pKi =-log Ki.

5-HT1B = assay: Hypothermia test in the guinea-pig (antagonism of GR46611); format: in vivo; conditions: for ΔT ° C. (90 min) / ΔT ° C. (120 min): mean ± s.e.m.
Excerpt: Using the hypothermia test on the guinea-pig (M. Stingle et al., J. of Psychopharmacology, 1994, 8, 14) it was possible to determine the agonist or antagonist nature of the products of the invention.
The guinea-pigs are kept in batteries of three, with free access to food and water, for one week before entering the study. One hour before each experiment, the guinea-pigs are placed in individual cages with free access to water. They are put back in their respective batteries at the end of each experiment. The temperature measurements are carried out using a digital thermometer and a rectal probe. Each guinea-pig is weighed, its base body temperature is taken and then the compound of the present invention to be evaluated is injected i.p. or p.o.
In the case of an agonist, the body temperature of each guinea-pig is taken every 30 minutes for 2 hours.
In the case of an antagonist, 15 minutes after injection each guinea-pig is injected again i.p. with the prototype agonist 5-HT1B : GR46611 (5 mg/kg/ml). The temperature is then taken every 30 minutes for 2 hours.
The criterion used for evaluation is the difference in temperature at a given time in relation to the base temperature. For each dose of product and for each time (t30, t60, t90, t120) the mean and the standard error of the mean are calculated.

[1] = system: extracellular concentration of serotonin; assay: Microdialysis experiment in rats (frontal cortex); format: in vivo; conditions: rat frontal cortex dialysate, subcutaneous route, compound alone
Excerpt: Those tests, carried out in the frontal cortex, make it possible in the case where the products cause an increase in the release of serotonin to envisage their use for depression, impulsive disorders and obesity. If they cause a decrease in the release of serotonin they will be beneficial in the treatment of anxiety, panic attacks, sleep problems, cognitive problems and drug abuse. Finally, if they produce an increase in dopamine and/or noradrenalin, they will be beneficial in the treatment of schizophrenia and, as above, in the treatment of depression and cognitive problems.
The rats are anaesthetised with pentobarbital (60 mg/kg i.p.). […]
Simultaneous quantification of dopamine, norepinephrine and serotonin is carried out as follows: 20 μl of dialysis samples are diluted with 20 μl of mobile phase (NaH2 PO4 : 75 mM, EDTA: 20 μM, sodium dodecanesulphonate: 1 mM, methanol: 17.5%, triethylamine: 0.01%, pH: 5.70) and 33 μl are analysed by HPLC with an inverse phase column (Hypersil ODS 5 μm, C18, 150×4.6 mm, Thermo Separation Products, Les Ulis, France) thermo-statically controlled at 45° C. and quantified by way of a coulometric detector. […] The quantities of neurotransmitters are expressed as a function of the mean of the three base values. […]

[2] = 0.04 mg/kg i.p., then GR46611 5 mg/kg
[3] = 0.16 mg/kg i.p., then GR46611 5 mg/kg
[4] = injection 1 Vehicle i.p., injection 2 GR46611 5 mg/kg

Compound c1ccc2c(c1)CC2CNC1CCN(c2cccc3c2OCCO3)CC1 (stereo not shown) [Example 4, N-(benzocyclobuten-1-ylmethyl)-N-[1-(2,3-dihydro[1,4]benzodioxin-5-yl)piperid-4-yl]amine] has a Ki (5-HT1A receptor) of 3160 nM.
Compound c1cc2c(c(N3CCC(NCCC45CC6CC(CC(C6)C4)C5)CC3)c1)OCCO2 [Example 9, N-[2-(adamant-1-yl)ethyl]-N-[1-(2,3-dihydro[1,4]benzodioxin-5-yl)-piperid-4-yl]amine] has a Ki (5-HT1B receptor) of 10 nM.
With COc1cc2c(cc1OC)-c1cc(CCNC3CCN(c4cccc5c4OCCO5)CC3)cn1CC2 [Example 11, 5,6-dihydro-8,9-dimethoxy-2-{2-{[1-(2,3-dihydro[1,4]benzodioxin-5-yl)-piperid-4-ylamino]ethyl}}pyrrolo[2,1-a]isoquinoline] the “ΔT ° C. (90 min)” value (5-HT1B; [2]) was -1.10 ± 0.36 °C, the “ΔT ° C. (120 min)” value (5-HT1B; [2]) was -1.43 ± 0.24 °C and the “ΔT ° C. (90 min)” value (5-HT1B; [3]) was -0.57 ± 0.17 °C. The “ΔT ° C. (120 min)” value (5-HT1B; [3]) was -0.67 ± 0.28 °C and the “agonist or antagonist nature” value (5-HT1B; hypothermia test, i.p. route) was “acts as an antagonist”.
With COc1ccc(CNC(=O)/C=C/c2ccc3[nH]cc(CCN(C)C)c3c2)cc1 [GR46611, reference compound] the “ΔT ° C. (90 min)” value (5-HT1B; [4]) was -1.05 ± 0.13 °C, the “ΔT ° C. (120 min)” value (5-HT1B; [4]) was -1.40 ± 0.36 °C and the “extracellular concentration of serotonin” value [1] was “decrease in the extracellular concentration of serotonin”.
